# From patent US20230322753A1, “HETEROARYL DERIVATIVE, METHOD FOR PREPARATION THEREOF, AND PHARMACEUTICAL COMPOSITION COMPRISING SAME AS ACTIVE INGREDIENT” (VORONOI INC., priority 2020, published 2023)
# Test system: Ba/F3 cells expressing EGFR Exon20 ins NPH
# Assay: Ba/F3 proliferation suppression activity, cells expressing EGFR Exon20 ins NPH
# Format: cell-based
# Settings: Mus musculus, BaF3, 72 hours, CellTiter-Glo
# Description: A following experiment was carried out to evaluate the suppression activity of the compounds according to the present invention against the proliferation of Ba/F3 which expresses EGFR mutations.
# For the Ba/F3 cells, a RPMI-1640 medium containing 10% FBS and 5 ng/ml IL-3 (R&D Systems) was used. The transduced Ba/F3 cells were cultured in a medium, which is same as the above medium, but 1 ug/ml puromycin (Invitrogen) was additionally added to.
# 24 hours before the treatment of the cells with the compounds, 3000 to 5000 cells were distributed into each well of a white clear bottom 96 well plate (Corning). The compounds were diluted in a dimethyl sulfoxide (e.g. dilution ratio of 3:1 and total 12 concentrations) and then injected by 0.5 ul respectively, such that a final concentration amounted to 0.3 nM to 50 uM. 72 hours after the treatment with the compounds, the measurement of live cells was made in such way that these cells were stored for 10 minutes at a room temperature using a CellTiter-Glo luminescent cell-viability reagent (Promega) and then their luminescence intensities were measured using a reader (i.e. Synergy Neo, Biotek). Each test was repeated three times.
# resulting values were calculated as a cell growth ratio (%) compared to a control. Then, the graphs were drawn and the […] values were calculated by using a program, GraphPad Prism version 5.0.
row,SMILES,GI50 [nM]
1,C=CC(=O)Nc1cc(Nc2cc(N3OCC[C@@H]3c3cccc(C(F)(F)F)c3F)ncn2)c(OC)cc1N1CCC(N2CCN(C)C(=O)C2)CC1 [Compound 74],50 to 500
2,C=CC(=O)Nc1cc(Nc2cc(N3OCC[C@@H]3c3cccc(C(F)(F)F)c3F)ncn2)c(OC)cc1N1CCN(C2CC2)CC1 [Compound 81],50 to 500
3,C=CC(=O)Nc1cc(Nc2cc(N3OCC[C@@H]3c3cccc(C(F)(F)F)c3F)ncn2)c(OC)cc1N1CCC[C@@H]1CN1CCC1 [Compound 72],50 to 500
4,C=CC(=O)Nc1cc(Nc2cc(N3OCC[C@@H]3c3ccc(F)c(C(F)(F)F)c3)ncn2)c(OC)cc1N1CCC(N2CCO[C@H](C)C2)CC1 [Compound 59],< 50
5,C=CC(=O)Nc1cc(Nc2cc(N3OCC[C@@H]3c3cccc(C(F)(F)F)c3F)ncn2)c(OC)cc1N1CCC(N2C[C@@H]3C[C@H]2CO3)CC1 [Compound 96],< 50
6,C=CC(=O)Nc1cc(Nc2cc(N3OCC[C@@H]3c3cccc(C(F)(F)F)c3F)ncn2)c(OC)cc1N1CCC(N2CCN(C(C)C)CC2)CC1 [Compound 78],< 50
7,C=CC(=O)Nc1cc(Nc2cc(N3OCC[C@@H]3c3ccc(F)c(C(F)(F)F)c3)ncn2)c(OC)cc1N1CCC(N2CCOCC2)CC1 [Compound 64],< 50
8,C=CC(=O)Nc1cc(Nc2cc(N3OCCC3c3cccc4c3cnn4C)ncn2)c(OC)cc1N1CCC(N2CCN(C3CC3)CC2)CC1 (stereo not shown) [Compound 126],< 50
9,C=CC(=O)Nc1cc(Nc2cc(N3OCC[C@@H]3c3cccc(C(F)(F)F)c3F)ncn2)c(OC)cc1N1CCC(N2CCNCC2)CC1 [Compound 97],< 50
10,C=CC(=O)Nc1cc(Nc2cc(N3OCC[C@@H]3c3cccc(C(F)(F)F)c3F)ncn2)c(OC)cc1N1CCN(C)[C@@H](C)C1 [Compound 76],< 50
11,C=CC(=O)Nc1cc(Nc2cc(N3OCC[C@@H]3c3cccc(C(F)(F)F)c3F)ncn2)c(OC)cc1N1CCN(C)[C@H](C)C1 [Compound 80],< 50
12,C=CC(=O)Nc1cc(Nc2cc(N3OCC[C@@H]3c3cccc(C(F)(F)F)c3F)ncn2)c(OC)cc1N1CCC(N2CCN(C3COC3)CC2)CC1 [Compound 84],< 50
13,C=CC(=O)Nc1cc(Nc2cc(N3OCC[C@@H]3c3cccc(C(F)(F)F)c3F)ncn2)c(OC)cc1N1CCC(N2CCN(C)CC2)CC1 [Compound 90],< 50
14,C=CC(=O)Nc1cc(Nc2cc(N3OCC[C@@H]3c3ccc(Cl)c(C(F)(F)F)c3)ncn2)c(OC)cc1N1CCC(N2CCN(C3CC3)CC2)CC1 [Compound 34],50 to 500
15,C=CC(=O)Nc1cc(Nc2nccc(N3OCC[C@@H]3c3ccccc3)n2)c(OC)cc1N(C)CCN(C)C [Compound 108],50 to 500
16,C=CC(=O)Nc1cc(Nc2cc(N3OCC[C@@H]3c3ccc(F)c(C(F)(F)F)c3)ncn2)c(OC)cc1N1CCC(N2CCC2)CC1 [Compound 48],< 50
17,C=CC(=O)Nc1cc(Nc2cc(N3OCC[C@@H]3c3cccc(C(F)(F)F)c3F)ncn2)c(OC)cc1N1CCOCC1 [Compound 65],50 to 500

row,SMILES,GI50 [nM]
1,C=CC(=O)Nc1cc(Nc2cc(N3OCC[C@@H]3c3cccc(C(F)(F)F)c3)ncn2)c(OC)cc1N1CCN(C2COC2)CC1 [Compound 23],< 50
2,C=CC(=O)Nc1cc(Nc2cc(N3OCC[C@@H]3c3cccc(C(F)(F)F)c3)ncn2)c(OC)cc1N1CCC(N2CCC(N3CCN(C)CC3)CC2)CC1 [Compound 14],50 to 500
3,C=CC(=O)Nc1cc(Nc2cc(N3OCC[C@@H]3c3cccc(C(F)(F)F)c3F)ncn2)c(OC)cc1N1CCC(N2CCC2)CC1 [Compound 71],< 50
4,C=CC(=O)Nc1cc(Nc2cc(N3OCC[C@@H]3c3cccc(C(F)(F)F)c3)ncn2)ccc1N1CCN(C)CC1 [Compound 31],50 to 500
5,C=CC(=O)Nc1cc(Nc2cc(N3OCC[C@@H]3c3cccc(C(F)(F)F)c3)ncn2)c(OC)cc1N1CCN(CC2CC2)CC1 [Compound 25],< 50
6,C=CC(=O)Nc1cc(Nc2cc(N3OCC[C@@H]3c3ccc(F)c(C(F)(F)F)c3)ncn2)c(OC)cc1N1C[C@H]2C[C@@H]1CO2 [Compound 45],50 to 500
7,C=CC(=O)Nc1cc(Nc2cc(N3OCC[C@@H]3c3cccc(C(F)(F)F)c3)ncn2)c(OC)cc1N1CCOCC1 [Compound 27],< 50
8,C=CC(=O)Nc1cc(Nc2cc(N3OCC[C@@H]3c3cccc(C(F)(F)F)c3F)ncn2)c(OC)cc1N1CCC(N2CCCN(C3CC3)CC2)CC1 [Compound 77],50 to 500
9,C=CCN1CCN(c2cc(OC)c(Nc3cc(N4OCC[C@@H]4c4cccc(C(F)(F)F)c4F)ncn3)cc2NC(=O)C=C)CC1 [Compound 94],< 50
10,C=CC(=O)Nc1cc(Nc2cc(N3OCC[C@@H]3c3cccc(C(F)(F)F)c3F)ncn2)c(OC)cc1N1CCC(N2CCN(C3CC3)[C@@H](C)C2)CC1 [Compound 67],50 to 500
11,C=CC(=O)Nc1cc(Nc2cc(N3OCC[C@@H]3c3ccc(F)c(C(F)(F)F)c3)ncn2)c(OC)cc1N1CCN(CC2CC2)CC1 [Compound 42],< 50
12,C=CC(=O)Nc1cc(Nc2cc(N3OCC[C@@H]3c3cccc(C(F)(F)F)c3F)ncn2)c(OC)cc1N1CCC(N2C[C@H]3C[C@@H]2CO3)CC1 [Compound 89],< 50
13,C=CC(=O)Nc1cc(Nc2cc(N3OCC[C@@H]3c3ccc(F)c(C(F)(F)F)c3)ncn2)c(OC)cc1N1CCC(N2CCN(C3CC3)CC2)CC1 [Compound 49],< 50
14,C=CC(=O)Nc1cc(Nc2cc(N3OCC[C@@H]3c3cccc(C(F)(F)F)c3F)ncn2)c(OC)cc1N1C[C@@H]2C[C@H]1CO2 [Compound 92],50 to 500
15,C=CC(=O)Nc1cc(Nc2cc(N3OCC[C@@H]3c3cccc(C(F)(F)F)c3F)ncn2)c(OC)cc1N1CCN(C)C(=O)C1 [Compound 85],50 to 500
16,C=CC(=O)Nc1cc(Nc2cc(N3OCC[C@@H]3c3cccc(C(F)(F)F)c3)ncn2)c(OC)cc1N1CCC(N2CCC(N3CCN(C4CC4)CC3)CC2)CC1 [Compound 13],50 to 500

# Other lines, results leading:
row,GI50 [nM],SMILES
1,< 50,C=CC(=O)Nc1cc(Nc2cc(N3OCC[C@@H]3c3ccc(F)c(C(F)(F)F)c3)ncn2)c(OC)cc1N1CCC(N(CC)CC)CC1 [Compound 47]
2,< 50,C=CC(=O)Nc1cc(Nc2cc(N3OCC[C@@H]3c3cccc(C(F)(F)F)c3F)ncn2)c(OC)cc1OCCN(C)C [Compound 70]
3,50 to 500,C=CC(=O)Nc1cc(Nc2cc(N3OCC[C@@H]3c3ccc(Cl)c(C(F)(F)F)c3)ncn2)c(OC)cc1N1CCC(N(C)C)CC1 [Compound 35]
4,< 50,C=CC(=O)Nc1cc(Nc2cc(N3OCC[C@@H]3c3cc(F)cc(C(F)(F)F)c3)ncn2)c(OC)cc1N1CCC(N(CC)CC)CC1 [Compound 16]
5,500 to 5000,C=CC(=O)Nc1cc(Nc2cc(N3OCC[C@@H]3c3cc(F)cc(F)c3)ccn2)c(OC)cc1N1CCN(C)CC1 [Compound 100]
6,50 to 500,C=CC(=O)Nc1cc(Nc2cc(N3OCC[C@@H]3c3cc(F)cc(C(F)(F)F)c3)ncn2)c(OC)cc1N1CCC(N(C)C)CC1 [Compound 15]
7,50 to 500,C=CC(=O)Nc1cc(Nc2cc(N3OCC[C@@H]3c3cc(F)cc(C(F)(F)F)c3)ncn2)c(OC)cc1N1CCN(C)[C@H](C)C1 [Compound 11]
8,50 to 500,C=CC(=O)Nc1cc(Nc2cc(N3OCC[C@@H]3c3ccc(Cl)c(C(F)(F)F)c3)ncn2)c(OC)cc1N1CCN(CC)CC1 [Compound 33]
9,50 to 500,C=CC(=O)Nc1cc(Nc2cc(N3OCC[C@@H]3c3cc(F)cc(F)c3)ncn2)c(OCC(F)(F)F)nc1N1CCN(C)CC1 [Compound 128]
10,< 50,C=CC(=O)Nc1cc(Nc2cc(N3OCC[C@@H]3c3cc(F)cc(F)c3)ncn2)c(OC)cc1SCCN(C)C [Compound 101]
11,50 to 500,C=CC(=O)Nc1cc(Nc2cc(N3OCC[C@@H]3c3cccc(C(F)(F)F)c3F)ncn2)c(OC)cc1N1CC[C@@H](N(C)C)C1 [Compound 88]
12,< 50,C=CC(=O)Nc1cc(Nc2cc(N3OCC[C@@H]3c3cc(F)cc(C(F)(F)F)c3)ncn2)c(OC)cc1N1CCN(CC)CC1 [Compound 4]
13,< 50,C=CC(=O)Nc1cc(Nc2cc(N3OCC[C@@H]3c3cc(F)cc(C(F)(F)F)c3)ncn2)c(OC)cc1N1CCC(N2CCC2)CC1 [Compound 19]
14,50 to 500,C=CC(=O)Nc1cc(Nc2cc(N3OCC[C@@H]3c3cc(F)cc(F)c3)ncn2)c(OC)cc1N1CCSCC1 [Compound 107]
15,< 50,C=CC(=O)Nc1cc(Nc2cc(N3OCC[C@@H]3c3cccc(C(F)(F)F)c3)ncn2)c(OC)cc1N1CCC(N(CC)CC)CC1 [Compound 20]
16,50 to 500,C=CC(=O)Nc1cc(Nc2cc(N3OCC[C@@H]3c3ccc(Cl)c(C(F)(F)F)c3)ncn2)c(OC)cc1N1CCN(C)CC1 [Compound 32]
17,< 50,C=CC(=O)Nc1cc(Nc2cc(N3OCC[C@@H]3c3cccc(C(F)(F)F)c3F)ncn2)c(OC)cc1N(C)CCNC [Compound 87]
18,50 to 500,C=CC(=O)Nc1cc(Nc2cc(N3OCCC3c3cc(Cl)cc(C(F)(F)F)c3)ncn2)c(OC)cc1N1CCN(CC)CC1 (stereo not shown) [Compound 50]
19,< 50,C=CC(=O)Nc1cc(Nc2cc(N3OCC[C@@H]3c3ccc(F)c(C(F)(F)F)c3)ncn2)c(OC)cc1N1CCN(C)[C@@H](C)C1 [Compound 44]
20,50 to 500,C=CC(=O)Nc1cc(Nc2cc(N3OCC[C@@H]3c3ccc(F)c(C(F)(F)F)c3)ncn2)c(OC)cc1N1CCOCC1 [Compound 63]
21,50 to 500,C=CC(=O)Nc1cc(Nc2cc(N3OCC[C@@H]3c3ccc(F)c(C(F)(F)F)c3)ncn2)c(OC)cc1N1CCO[C@@H](C)C1 [Compound 56]
22,50 to 500,C=CC(=O)Nc1cc(Nc2cc(N3OCC[C@@H]3c3cc(F)cc(F)c3)ccn2)c(OC)cc1N(C)CCN(C)C [Compound 99]
